Laboratory results from ChEMBL document CHEMBL4483862, “Open-source discovery of chemical leads for next-generation chemoprotective antimalarials” (2018).

Test system: Plasmodium berghei
Assay: Luciferase/luciferin-expressing antifolate-resistant parasites were used to infect a culture of HepG2 cells that were pre-incubated with compounds. Infected hepatocytes emit light due to the luciferase reaction. Assay results are presented as the percent inhibition of light emission compared to control. […]
Format: functional
Settings: sporozoite; for IC90: read-out: LUCIFERASE INFECTION ASSAY - IC90

Oc1c(Cl)cc(Cl)cc1/C=C/c1ccc2cccc(O)c2n1
IC50 (HEPG2TOX_HILL_SLOPE 10.3, HEPG2TOX_R_SQUARED 0.191, PBLUC_HILL_SLOPE 3.13, PBLUC_R_SQUARED 0.48, read-out: LUCIFERASE INFECTION ASSAY - IC50): 3.86 µM
IC90: 7.78 µM

CC(C)(C)c1ccccc1N1C(=O)C=CC1=O
IC50 (HEPG2TOX_HILL_SLOPE 10.3, HEPG2TOX_R_SQUARED 0.72, PBLUC_HILL_SLOPE 8.87, PBLUC_R_SQUARED 0.496, read-out: LUCIFERASE INFECTION ASSAY - IC50): 5.14 µM
IC90: 6.59 µM

OCc1ccc(-c2cnc3ccc(-c4cncnc4)nn23)cc1
IC50 (HEPG2TOX_HILL_SLOPE 10.3, HEPG2TOX_R_SQUARED 0.526, PBLUC_HILL_SLOPE 13.6, PBLUC_R_SQUARED 0.613, read-out: LUCIFERASE INFECTION ASSAY - IC50): 3.24 µM
IC90: 3.81 µM

COc1ccc(Nc2nccc3[nH]c(-c4cccc(F)c4)cc23)cc1
IC50 (HEPG2TOX_HILL_SLOPE 10.4, HEPG2TOX_R_SQUARED 0.0549, PBLUC_HILL_SLOPE 2.88, PBLUC_R_SQUARED 0.623, read-out: LUCIFERASE INFECTION ASSAY - IC50): 1.66 µM
IC90: 3.55 µM

COc1cc(Nc2nc(C(F)(F)F)nc3ccccc23)cc(OC)c1OC
IC50 (HEPG2TOX_HILL_SLOPE 10.4, HEPG2TOX_R_SQUARED 0.414, PBLUC_HILL_SLOPE 1.58, PBLUC_R_SQUARED 0.452, read-out: LUCIFERASE INFECTION ASSAY - IC50): 4.12 µM
IC90: > 10 µM

C=CCN(c1ccc(Cl)cc1)S(=O)(=O)c1cccc(C(=O)C(C#N)c2nc3ccccc3n2C)c1 (centres undefined)
IC50 (HEPG2TOX_HILL_SLOPE 10.3, HEPG2TOX_R_SQUARED 0.536, PBLUC_HILL_SLOPE 9.9, PBLUC_R_SQUARED 0.166, read-out: LUCIFERASE INFECTION ASSAY - IC50): 3.1 µM
IC90: 3.88 µM

CN(C)c1cc(CNC(=O)c2cc3c(F)cccc3s2)ccn1
IC50 (HEPG2TOX_HILL_SLOPE 10.4, HEPG2TOX_R_SQUARED 0.0222, PBLUC_HILL_SLOPE 5.26, PBLUC_R_SQUARED 0.456, read-out: LUCIFERASE INFECTION ASSAY - IC50): 4.99 µM
IC90: 7.57 µM

Cc1noc(N)c1C(=O)OCc1cccc2cccnc12
IC50 (HEPG2TOX_HILL_SLOPE 10.3, HEPG2TOX_R_SQUARED 0.154, PBLUC_HILL_SLOPE 14, PBLUC_R_SQUARED 0.377, read-out: LUCIFERASE INFECTION ASSAY - IC50): 9.17 µM
IC90: > 10 µM

CN(C)CCNC(=O)c1cccc(-c2cnc3ccc(-c4ccc(F)cc4)nn23)c1
IC50 (HEPG2TOX_HILL_SLOPE 10.3, HEPG2TOX_R_SQUARED 0.505, PBLUC_HILL_SLOPE 2.09, PBLUC_R_SQUARED 0.253, read-out: LUCIFERASE INFECTION ASSAY - IC50): 4.88 µM
IC90: > 10 µM

COC(=O)c1c(NC(=O)c2ccco2)c2cc(NC(C)Cc3ccccc3F)cnc2n1C (centres undefined)
IC50 (HEPG2TOX_HILL_SLOPE 10.3, HEPG2TOX_R_SQUARED 0.591, PBLUC_HILL_SLOPE 7.35, PBLUC_R_SQUARED 0.509, read-out: LUCIFERASE INFECTION ASSAY - IC50): 6.19 µM
IC90: > 7.33 µM

O=C(NC1CC1)c1ccc(-c2cnc3c(NCc4ccco4)nccn23)cc1
IC50 (HEPG2TOX_HILL_SLOPE 10.4, HEPG2TOX_R_SQUARED 0.433, PBLUC_HILL_SLOPE 17.4, PBLUC_R_SQUARED 0.253, read-out: LUCIFERASE INFECTION ASSAY - IC50): 3.03 µM
IC90: 3.44 µM

Cc1ccc(CCC2CCN(C(=O)CCCNC3=NS(=O)(=O)c4ccccc43)CC2)cc1
IC50 (HEPG2TOX_HILL_SLOPE 10.3, HEPG2TOX_R_SQUARED 0.945, PBLUC_HILL_SLOPE 12.1, PBLUC_R_SQUARED 0.567, read-out: LUCIFERASE INFECTION ASSAY - IC50): 3.2 µM
IC90: 3.84 µM

CN(C)c1c(F)cc(C(=O)Nc2cc(C(F)(F)F)cc(C(F)(F)F)c2)cc1F
IC50 (HEPG2TOX_HILL_SLOPE 10.3, HEPG2TOX_R_SQUARED 0.772, PBLUC_HILL_SLOPE 1.36, PBLUC_R_SQUARED 0.505, read-out: LUCIFERASE INFECTION ASSAY - IC50): > 8 µM
IC90: > 8 µM

O=C(Nc1nonc1-c1cccs1)c1cccc(Cl)c1
IC50 (HEPG2TOX_HILL_SLOPE 10.4, HEPG2TOX_R_SQUARED 0.681, PBLUC_HILL_SLOPE 17.7, PBLUC_R_SQUARED 0.0482, read-out: LUCIFERASE INFECTION ASSAY - IC50): 9.87 µM
IC90: > 10.8 µM

CC(C)C(CNc1nc(-c2ccsc2)nc2ccccc12)N1CCN(C)CC1 (centres undefined)
IC50 (HEPG2TOX_HILL_SLOPE 10.4, HEPG2TOX_R_SQUARED 0.591, PBLUC_HILL_SLOPE 1.6, PBLUC_R_SQUARED 0.533, read-out: LUCIFERASE INFECTION ASSAY - IC50): 2.79 µM
IC90: > 10 µM

CC(=O)c1c(C)cc(C)c(CNc2ccc(NC(=O)C3CC3)cc2C(F)(F)F)c1C
IC50 (HEPG2TOX_HILL_SLOPE 10.3, HEPG2TOX_R_SQUARED 0.233, PBLUC_HILL_SLOPE 1.48, PBLUC_R_SQUARED 0.914, read-out: LUCIFERASE INFECTION ASSAY - IC50): 1.03 µM
IC90: 4.59 µM

COc1ccc(-c2cnc3cnc(-c4ccc(OC)nc4)cn23)cc1
IC50 (HEPG2TOX_HILL_SLOPE 10.4, HEPG2TOX_R_SQUARED 0.778, PBLUC_HILL_SLOPE 1.98, PBLUC_R_SQUARED 0.81, read-out: LUCIFERASE INFECTION ASSAY - IC50): 2.91 µM
IC90: 8.79 µM

O=C(Nc1ccc(Cl)c(C(F)(F)F)c1)C(OC(=O)C12CC3CC(CC(C3)C1)C2)c1ccccc1 (centres undefined)
IC50 (HEPG2TOX_HILL_SLOPE 10.4, HEPG2TOX_R_SQUARED 0.074, PBLUC_HILL_SLOPE 15.3, PBLUC_R_SQUARED 0.511, read-out: LUCIFERASE INFECTION ASSAY - IC50): 8.31 µM
IC90: 9.6 µM

CN(C)c1ccc(NC(=O)CCc2nc(-c3ccc(Cl)cc3)no2)c(C#N)c1Cl
IC50 (HEPG2TOX_HILL_SLOPE 10.4, HEPG2TOX_R_SQUARED 0.728, PBLUC_HILL_SLOPE 0.523, PBLUC_R_SQUARED 0.342, read-out: LUCIFERASE INFECTION ASSAY - IC50): > 7.67 µM
IC90: > 7.67 µM

O=C(Nc1nc2ccc(Oc3ccccc3)cc2s1)c1ccc(S(=O)(=O)C(F)F)cc1
IC50 (HEPG2TOX_HILL_SLOPE 10.3, HEPG2TOX_R_SQUARED 0.512, read-out: LUCIFERASE INFECTION ASSAY - IC50): > 10 µM
IC90: > 10 µM

Clc1ccc(Nc2nccc3c2ncn3Cc2ccccc2)cc1
IC50 (HEPG2TOX_HILL_SLOPE 10.4, HEPG2TOX_R_SQUARED 0.978, PBLUC_HILL_SLOPE 0.755, PBLUC_R_SQUARED 0.638, read-out: LUCIFERASE INFECTION ASSAY - IC50): 0.827 µM
IC90: > 10 µM

C#CCOc1ccccc1/C=C1\SC(NC2CCCCC2)=NC1=O
IC50 (HEPG2TOX_HILL_SLOPE 10.3, HEPG2TOX_R_SQUARED 0.343, PBLUC_HILL_SLOPE 2.57, PBLUC_R_SQUARED 0.554, read-out: LUCIFERASE INFECTION ASSAY - IC50): 0.17 µM
IC90: 0.4 µM

O=C(Nc1ncccc1O)c1csc(COc2ccc(Cl)cc2)n1
IC50 (HEPG2TOX_HILL_SLOPE 10.3, HEPG2TOX_R_SQUARED 0.899, PBLUC_HILL_SLOPE 4.56, PBLUC_R_SQUARED 0.315, read-out: LUCIFERASE INFECTION ASSAY - IC50): 4.88 µM
IC90: 7.89 µM

CC1CC1c1ccc(/C=C2\C(=O)Nc3cc(Cl)ccc32)o1 (centres undefined)
IC50 (HEPG2TOX_HILL_SLOPE 10.3, HEPG2TOX_R_SQUARED 0.792, PBLUC_HILL_SLOPE 17.7, PBLUC_R_SQUARED 0.192, read-out: LUCIFERASE INFECTION ASSAY - IC50): 9.66 µM
IC90: > 10 µM

COCCCNC(=S)Nc1cccc2ccccc12
IC50 (HEPG2TOX_HILL_SLOPE 10.4, HEPG2TOX_R_SQUARED 0.777, PBLUC_HILL_SLOPE 18.1, PBLUC_R_SQUARED 0.604, read-out: LUCIFERASE INFECTION ASSAY - IC50): 11.8 µM
IC90: > 12 µM

O=[N+]([O-])c1cccc(OCC(O)CN2CCN(Cc3nc(-c4ccc(Cl)cc4)no3)CC2)c1 (centres undefined)
IC50 (HEPG2TOX_HILL_SLOPE 10.3, HEPG2TOX_R_SQUARED 0.223, PBLUC_HILL_SLOPE 2.57, PBLUC_R_SQUARED 0.732, read-out: LUCIFERASE INFECTION ASSAY - IC50): 4.59 µM
IC90: > 10 µM

O=C(CCc1ccco1)Nc1ccc(-n2nccn2)cc1
IC50 (HEPG2TOX_HILL_SLOPE 10.3, HEPG2TOX_R_SQUARED 0.943, PBLUC_HILL_SLOPE 1.03, PBLUC_R_SQUARED 0.655, read-out: LUCIFERASE INFECTION ASSAY - IC50): 4.85 µM
IC90: > 10 µM

Cc1nnc(Oc2ccc(C#N)cc2Cl)c2ccccc12
IC50 (HEPG2TOX_HILL_SLOPE 10.4, HEPG2TOX_R_SQUARED 0.426, read-out: LUCIFERASE INFECTION ASSAY - IC50): > 10 µM
IC90: > 10 µM

COc1ccc(C)cc1CCNc1cc(Cl)nc(N)n1
IC50 (HEPG2TOX_HILL_SLOPE 10.5, HEPG2TOX_R_SQUARED 0.0746, read-out: LUCIFERASE INFECTION ASSAY - IC50): > 10 µM
IC90: > 10 µM

CCNC(=O)N1CCc2nc(NCc3cccc(Oc4ccccc4)c3)ncc2C1
IC50 (HEPG2TOX_HILL_SLOPE 10.3, HEPG2TOX_R_SQUARED 0.577, PBLUC_HILL_SLOPE 136, PBLUC_R_SQUARED 0.208, read-out: LUCIFERASE INFECTION ASSAY - IC50): 3.87 µM
IC90: 3.94 µM

Cc1nc(COc2ccc(C(=O)Nc3nc(-c4ccccn4)cs3)cc2)no1
IC50 (HEPG2TOX_HILL_SLOPE 10.4, HEPG2TOX_R_SQUARED 0.524, PBLUC_HILL_SLOPE 14, PBLUC_R_SQUARED 0.305, read-out: LUCIFERASE INFECTION ASSAY - IC50): 2.96 µM
IC90: 3.46 µM

COc1ccc(-c2c(C)nn3c(=O)cc(-c4ccccc4)[nH]c23)cc1
IC50 (HEPG2TOX_HILL_SLOPE 10.3, HEPG2TOX_R_SQUARED 0.705, PBLUC_HILL_SLOPE 12.5, PBLUC_R_SQUARED 0.547, read-out: LUCIFERASE INFECTION ASSAY - IC50): 8.34 µM
IC90: 9.94 µM
